Reference: patent US20250091989A1, “SMALL MOLECULE PROTEIN SYNTHESIS MODULATORS” (Interdict Bio, Inc., priority 2023, published 2025)

Key:
MYC = assay: In vitro transcription-translation (IVTT) reporter assay, MYC test sequence; format: biochemical; settings: HeLa S3 lysate, sfGFP/mCherry ratio, 2 hrs at 30° C.
Source text: (§1) All reporter constructs have been cloned into the pT7CFE1-CHis plasmid (ThermoFisher #88860) using Gibson assembly procedures (NEB #E2611L). The parental pT7CFE1-CHis plasmid contains an EMCV IRES at the 5′UTR for translation initiation, a multiple-cloning site (MCS) for gene insertion, an optional C-terminal His-epitope tag, and polyA sequence in the 3′UTR to regulate mRNA stability. All reporters are designed to be inserted at the MCS to include a red fluorescent protein (mCherry), P2A self-cleaving peptide which releases the preceding mCherry protein product, and a fusion open reading frame containing a 3×FLAG epitope, a peptide sequence of interest (TEST), and green fluorescent protein (sfGFP).
(§2) Construct Plasmid Preparation: All plasmids are isolated from MACH1 cells (ThermoFisher) grown overnight in ampicillin-containing luria broth, and purified using ZymoPure Express Plasmid Midiprep Kit (Zymo Research). Constructs are sequenced verified and diluted to a working concentration of 110 ng/μL.
(§3) HeLa S3 Lysate Preparation: HeLa S3 cell pellets are acquired from Ipracell/Ipratech (Belgium) and shipped as 4 mL frozen cell pellets on dry ice for storage at −80° C. until use. The procedure for lysate preparation is as follows. Prepare 1× Lysis Buffer, cold and stored on ice:
(§4) Each preparation takes 8 cell pellets (4 ml packed volume each, approximately 1.0×10^9 cells per pellet). Thaw cell pellets from −80° C. on ice for 90 mins. Lay pellets horizontally on top of the ice and rotate every 30 mins to ensure even thawing. Once thawed, add 4 mL of cold lysis buffer to each pellet, and using a serological pipet, gently pipet up and down to break up clumps. Incubate resuspended cells in ice for an additional 30 mins (plunged into ice). During 30 min incubation, rinse and RNase-zap (Ambion) glass dounces (use loose pestle “A”), gently dry and place on ice until needed. Prepare RNase-free Eppendorf tubes for spinning and for batch storage. Add batch labels to 1.5-1.7 mL RNase-free microcentrifuge tubes (labeling scheme below). Each batch will have an extra 1.5-1.7 mL RNase-free microcentrifuge tube for 40 μL of lysate, label the top of this tube (labeling scheme below). After 30 min incubation, transfer all 8 mL of cell pellet to dounce. Cell lysis is complete after douncing 100 times. Aliquot cell lysis into 1.5-1.7 mL temporary-microcentrifuge tubes. Place tubes in centrifuge with “fins” out, and spin at 1,200 xg for 5 mins. After the first spin use a 1 mL pipet to resuspend each tube and repeat spin. This acts as an additional lysis step, is more vigorous and increases lysate yield. During second spin get liquid N2 and a fresh conical tube on ice.
(§5) After spin is complete, transfer supernatant (lysate) from microcentrifuge tubes into the 50 mL conical tube and keep on ice. Repeat steps 10-14 for all other cell pellets until completed. Once all cell lysate has been transferred to the 50 mL conical tube pipet to mix so the solution is homogenous. Transfer 1 mL of lysate into batch-labeled microcentrifuge tubes and flash freeze in liquid nitrogen. Be sure to pipet up and down to mix throughout transfer step. Place all tubes in the […] for long-term storage.
(§6) In vitro transcription-translation assay setup: Each assay includes a master mix containing lysate and shared components, a 96-well plate containing compound titrations for testing, a 96-well DNA plate with reporter constructs to be tested, 96-well skirted PCR plates, and 96-well flat-bottom, black, fluorescent assay plates. […]

ALK = assay: In vitro transcription-translation (IVTT) reporter assay, ALK test sequence; format: biochemical; settings: HeLa S3 lysate, sfGFP/mCherry ratio, 2 hrs at 30° C.
Source text: as §1, §2, §3, §4, §5, §6

Row | IC50 (MYC) [µM] | IC50 (ALK) [µM] | Structure (SMILES)
1 | < 10 |  | O=C(CC[C@@H]1CCCN1)O[C@@H]1[C@@H](O)CN[C@@H]1Cc1ccc(-c2cnco2)cc1 [V192841]
2 | < 10 |  | O=C(CC[C@@H]1CCCN1)O[C@@H]1[C@@H](O)CN[C@@H]1Cc1ccc(-c2cncs2)cc1 [V192842, (2R,3S,4S)-4-hydroxy-2-{[4-(1,3-thiazol-5-yl)phenyl]methyl}pyrrolidin-3-yl 3-[(2S)-pyrrolidin-2-yl]propanoate]
3 | < 10 |  | O=C(Cc1cccc(F)c1)O[C@@H]1[C@@H](O)CN[C@@H]1Cc1ccc(-c2cnco2)cc1 [V192843, (2R,3S,4S)-4-hydroxy-2-{[4-(1,3-oxazol-5-yl)phenyl]methyl}pyrrolidin-3-yl 2-(3-fluorophenyl)acetate]
4 | < 10 |  | O=C(Cc1cccc(F)c1)O[C@@H]1[C@@H](O)CN[C@@H]1Cc1ccc(-c2cncs2)cc1 [V192844, (2R,3S,4S)-4-hydroxy-2-{[4-(1,3-thiazol-5-yl)phenyl]methyl}pyrrolidin-3-yl 2-(3-fluorophenyl)acetate]
5 | < 10 |  | CC(=O)O[C@@H]1[C@@H](O)CN[C@@H]1Cc1ccc(-c2cnco2)cc1 [V192987, (2R,3S,4S)-4-hydroxy-2-{[4-(1,3-oxazol-5-yl)phenyl]methyl}pyrrolidin-3-yl acetate]
6 | < 10 |  | O=C(C[C@@H]1CCNC1)O[C@@H]1[C@@H](O)CN[C@@H]1Cc1ccc(C(F)F)cc1 [V193046, (2R,3S,4S)-2-{[4-(difluoromethyl)phenyl]methyl}-4-hydroxypyrrolidin-3-yl 2-[(3S)-pyrrolidin-3-yl]acetate]
7 | < 10 |  | O=C(C[C@@H]1CCNC1)O[C@@H]1[C@@H](O)CN[C@@H]1Cc1ccc(-c2cnco2)cc1 [V193047, (2R,3S,4S)-4-hydroxy-2-{[4-(1,3-oxazol-5-yl)phenyl]methyl}pyrrolidin-3-yl 2-[(3S)-pyrrolidin-3-yl]acetate]

The remaining lines, values behind:

Row | Structure (SMILES) | IC50 (MYC) [µM] | IC50 (ALK) [µM]
8 | COc1ccc(C[C@H]2NC[C@H](O)[C@H]2OC(=O)c2ccc(F)c(S(=O)(=O)N(C)C)c2)cc1 [V000196, (2R,3S,4S)-4-hydroxy-2-[(4-methoxyphenyl)methyl]pyrrolidin-3-yl 3-(dimethylsulfamoyl)-4-fluorobenzoate] | > 30 | > 30
9 | COc1ccc(C[C@H]2NC[C@H](O)[C@H]2OC(=O)CC[C@H]2CNCCN2)cc1 [V041828, (2R,3S,4S)-4-hydroxy-2-[(4-methoxyphenyl)methyl]pyrrolidin-3-yl 3-[(2S)-piperazin-2-yl]propanoate] | > 30 | > 30
10 | COc1ccc(C[C@H]2NC[C@H](O)[C@H]2OC(=O)[C@@H]2CN(Cc3ccccc3)CC23CNC3)cc1 [V186717, (2R,3S,4S)-4-hydroxy-2-[(4-methoxyphenyl)methyl]pyrrolidin-3-yl (8S)-6-benzyl-2,6-diazaspiro[3.4]octane-8-carboxylate] | > 30 | > 30
11 | CC(=O)O[C@@H]1[C@@H](O)CN[C@@H]1Cc1ccc(OC(F)(F)F)cc1 [V187185, (2R,3S,4S)-4-hydroxy-2-{[4-(trifluoromethoxy)phenyl]methyl}pyrrolidin-3-yl acetate] | < 10 | 
12 | O=C(CC1CC(F)(F)C1)O[C@@H]1[C@@H](O)CN[C@@H]1Cc1ccc(-c2cnco2)cc1 [V192387, (2R,3S,4S)-4-hydroxy-2-{[4-(1,3-oxazol-5-yl)phenyl]methyl}pyrrolidin-3-yl 2-(3,3-difluorocyclobutyl)acetate] | < 10 | 
13 | O=C(CC1CC(F)(F)C1)O[C@@H]1[C@@H](O)CN[C@@H]1Cc1ccc(-c2cncs2)cc1 [V192840, (2R,3S,4S)-4-hydroxy-2-{[4-(1,3-thiazol-5-yl)phenyl]methyl}pyrrolidin-3-yl 2-(3,3-difluorocyclobutyl)acetate] | < 10 | 
14 | COc1ccc(C[C@H]2NC[C@H](O)[C@H]2OC(=O)CC[C@@H]2CCCN2)cc1 [V192931, (2R,3S,4S)-4-hydroxy-2-[(4-methoxyphenyl)methyl]pyrrolidin-3-yl 3-[(2S)-pyrrolidin-2-yl]propanoate] | < 10 | 
